Measurements: US10457686B2, “[1,2,3]triazolo[4,5-D]pyrimidine derivatives” (Hoffmann-La Roche Inc., priority 2016, dated 2019)
pKi: −log10 of the molar value.

Key:
human CB1 = human CB1 (Homo sapiens (Human), UniProt P21554); test: Radioligand binding assay, human CNR1 (CB1) receptor, [3H]-CP-55,940; settings: membrane preparations of HEK cells expressing human CNR1; 1.5 nM [3H]-CP-55,940
Description: (§1) Radioligand Binding Assay
(§2) The affinity of the compounds of the invention for cannabinoid receptors was determined using recommended amounts of membrane preparations (PerkinElmer) of human embryonic kidney (HEK) cells expressing the human CNR1 or CNR2 receptors in conjunction with 1.5 or 2.6 nM [3H]-CP-55,940 (Perkin Elmer) as radioligand, respectively. Binding was performed in binding buffer (50 mM Tris, 5 mM MgCl2, 2.5 mM EDTA, and 0.5% (wt/vol) fatty acid free BSA, pH 7.4 for CB1 receptor and 50 mM Tris, 5 mM MgCl2, 2.5 mM EGTA, and 0.1% (wt/vol) fatty acid free BSA, pH 7.4 for CB2 receptor) in a total volume of 0.2 mL for 1 h at 30° C. shaking. The reaction was terminated by rapid filtration through microfiltration plates coated with 0.5% polyethylenimine (UniFilter GF/B filter plate; Packard). Bound radioactivity was analyzed for Ki using nonlinear regression analysis (Activity Base, ID Business Solution, Limited), with the Kd values for [^3H]CP55,940 determined from saturation experiments.

human CB2 = human CB2 (Homo sapiens (Human), UniProt P34972); test: Radioligand binding assay, human CNR2 (CB2) receptor, [3H]-CP-55,940; settings: membrane preparations of HEK cells expressing human CNR2; 2.6 nM [3H]-CP-55,940
Chain of human CB2 (P34972 whole entry): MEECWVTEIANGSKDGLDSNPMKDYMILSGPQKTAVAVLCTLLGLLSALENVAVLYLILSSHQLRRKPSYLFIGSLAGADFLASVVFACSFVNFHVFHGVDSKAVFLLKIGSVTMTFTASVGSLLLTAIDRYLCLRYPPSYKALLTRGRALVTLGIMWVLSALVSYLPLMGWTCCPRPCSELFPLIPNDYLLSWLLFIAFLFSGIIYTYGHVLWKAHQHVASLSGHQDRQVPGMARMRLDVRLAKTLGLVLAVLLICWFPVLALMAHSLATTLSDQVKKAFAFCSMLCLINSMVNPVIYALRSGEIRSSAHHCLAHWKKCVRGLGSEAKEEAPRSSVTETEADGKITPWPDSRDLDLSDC
Description: as §1, §2
The compounds according to formula (I) have an activity in the above assay (Ki) particularly of 0.5 nM to 10 μM, more particularly of 0.5 nM to 3 μM and most particularly of 0.5 nM to 100 nM.

Chain of human CB1 (P21554 whole entry): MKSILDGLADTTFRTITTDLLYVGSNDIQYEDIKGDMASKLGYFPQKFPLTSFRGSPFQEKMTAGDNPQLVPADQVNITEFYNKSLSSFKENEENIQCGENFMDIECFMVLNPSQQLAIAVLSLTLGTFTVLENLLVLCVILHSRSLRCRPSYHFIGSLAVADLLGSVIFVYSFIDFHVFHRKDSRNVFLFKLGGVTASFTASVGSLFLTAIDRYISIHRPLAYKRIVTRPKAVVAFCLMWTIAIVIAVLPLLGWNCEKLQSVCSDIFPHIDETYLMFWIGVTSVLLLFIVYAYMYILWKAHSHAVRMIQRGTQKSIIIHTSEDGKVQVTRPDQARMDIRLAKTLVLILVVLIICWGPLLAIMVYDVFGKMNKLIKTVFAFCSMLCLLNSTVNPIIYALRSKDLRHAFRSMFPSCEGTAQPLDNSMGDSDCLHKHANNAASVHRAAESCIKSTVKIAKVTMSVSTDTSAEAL

| Compound | pKi (human CB1) | pKi (human CB2) |
| --- | --- | --- |
| C#CCCC1(CCNC(=O)c2nonc2Cn2nc3nc(C(C)(C)C)nc(N4CCC(F)(F)C4)c3n2)N=N1 [Example 2, 4-{[5-tert-Butyl-7-(3,3-difluoropyrrolidin-1-yl)-2H-[1,2,3]triazolo[4,5-d]pyrimidin-2-yl]methyl}-N-{2-[3-(but-3-yn-1-yl)-3H-diaziren-3-yl]ethyl}-1,2,5-oxadiazole-3-carboxamide] | < 5.00 | 6.03 |
| C#CCCC1(CCNC(=O)c2nonc2Cn2nc3nc(C(C)(C)C)nc(N4CC[C@H](O)C4)c3n2)N=N1 [Example 3, 4-({5-tert-Butyl-7-[(3S)-3-hydroxypyrrolidin-1-yl]-2H-[1,2,3]triazolo[4,5-d]pyrimidin-2-yl}methyl)-N-{2-[3-(but-3-yn-1-yl)-3H-diaziren-3-yl]ethyl}-1,2,5-oxadiazole-3-carboxamide] | < 5.00 | 5.54 |
| C#Cc1cccc(C2(C(F)(F)F)N=N2)c1Cn1nc2nc(C(F)(F)c3ccccc3)nc(N3CCC(F)(F)C3)c2n1 [Example 4, 5-[Difluoro(phenyl)methyl]-7-(3,3-difluoropyrrolidin-1-yl)-2-[[2-ethynyl-6-[3-(trifluoromethyl)diazirin-3-yl]phenyl]methyl]triazolo[4,5-d]pyrimidine] | < 5.00 | 5.97 |
| C#Cc1cccc(C2(C(F)(F)F)N=N2)c1Cn1nc2nc(C(C)(C)C)nc(N3CCC(F)(F)C3)c2n1 [Example 5, 5-tert-Butyl-7-(3,3-difluoropyrrolidin-1-yl)-2-[[2-ethynyl-6-[3-(trifluoromethyl)diazirin-3-yl]phenyl]methyl]triazolo[4,5-d]pyrimidine] | 6.23 | 7.09 |
| C#Cc1cccc(C2(C(F)(F)F)N=N2)c1Cn1nc2nc(C(C)(C)C)nc(N3CC[C@H](O)C3)c2n1 [Example 6, (3S)-1-[5-tert-Butyl-2-[[2-ethynyl-6-[3-(trifluoromethyl)diazirin-3-yl]phenyl]methyl]triazolo[4,5-d]pyrimidin-7-yl]pyrrolidin-3-ol] | < 5.00 | 7.00 |
| C#Cc1cccc(C2(C(F)(F)F)N=N2)c1Cn1nc2nc(C(F)(F)c3ccccc3)nc(N3CC[C@H](O)C3)c2n1 [Example 7, (3S)-1-[5-[Difluoro(phenyl)methyl]-2-[[2-ethynyl-6-[3-(trifluoromethyl)diazirin-3-yl]phenyl]methyl]triazolo[4,5-d]pyrimidin-7-yl]pyrrolidin-3-ol] | 5.26 | 6.45 |
